In patent publication US8318794B2, “Method of use of porphyrins in preparing a medicament for sonodynamic therapy and a method of sonodynamic therapy using porphyrins” (Science Group Pty. Ltd., priority 2008, dated 2012):

Key:
[1] = tested on: S-180 sarcoma; assay: Animal Test A: SDT with dihydroporphin e4 in KM mouse S-180 sarcoma model; type: in vivo; details: for Average Tumor Weights: 12 days after treatment
Procedure: The sound-sensitive agent, dihydroporphin e4, is prepared according to Chinese Patent No. 99119878.6. The agent is dissolved in water for injection in darkness to give a final concentration of 4 mg/mL. The resultant solution is stored at 4° C. in darkness.
The animal tumor model used in this study was the KM mouse S-180 sarcoma, which is one of the tumor models appointed by the China Food and Drug Administration (CFDA) for new anticancer drug testing. Mouse S-180 sarcoma cell line was commercially available from the Cancer Hospital affiliated to Sun Yat-sen University. The inbred strain of KM mice (female, about 18-20 g body weight) was bred and tested in a laboratory consistent with national standards for new drug tests (the Animal Experimental Centre of Guangzhou Chinese Traditional Medical University). The mouse S-180 sarcoma cell line was injected into and raised in the abdominal cavity of the KM mouse and regenerated 3 times by passing malignant ascites from one mouse to another to confirm their growth is stable.
The ultrasound having a frequency of 1.0 MHz and an adjustable power density in the range of 0.1-2.2 W/cm^2 is applied. The apparatus can emit parallel wave, continuous wave or discontinuous wave.
The ascites with S-180 cell suspension was drawn out from the abdomen of the third passage mouse, and germ-free physiological saline solution was added. The final concentration of the cell suspension was 1×10^7 cells/mL. 0.1 mL of the cell suspension was injected subcutaneously in the right axilla of the mouse to grow a solid tumor.
Three days later, a small mass with the average diameter of about 0.4 cm was seen and palpated on every implanted mouse axilla. These tumor-bearing mice are divided randomly into the following groups with 5 mice in each group: • 1) a blank control group (C); • 2) a ultrasound group (U), which are simply treated with ultrasound (having a frequency of 1.0 MHz and a power density of 1.6 W/cm^2) without injection of the sound-sensitive agent; • 3) a sound-sensitive agent group (E), which are simply injected with the sound-sensitive agent without treatment of ultrasound; • 4) a 0.4 group (EU1), which are injected with the sound-sensitive agent and subsequently treated with ultrasound having a frequency of 1.0 MHz and a power density of 0.4 W/cm^2; • 5) a 0.8 group (EU2), which are treated according to EU1 except using ultrasound having a power density of 0.8 W/cm^2; and • 6) a 1.6 group (EU3), which are treated according to EU1 except using ultrasound having a power density of 1.6 W/cm^2.
To prepare the mice for the experiment, the fur on the tumor-bearing area of the mice was removed with depilatory cream. For the E, EU1, EU2 and EU3 groups, the sound-sensitive agent was injected into each mouse abdominal cavity in a dose of 40 mg/kg in a dark room. The mice are kept in darkness.
(§1) Six hours after the injection, each mouse of the EU1, EU2 and EU3 groups and the U group is partially immerged in water with only their head remaining above the water surface. An ultrasound probe was then placed into the water to irradiate the tumor area at the above parameters for 3 minutes. The mice of each group are fed in a conventional way.
After treatment with SDT, primary tumor size were estimated by measuring perpendicular minor dimension (W) and major dimension (L) using sliding calipers every one or two days. Approximate tumor volume was calculated by the formula: W^2L×½.
12 days later, the mice are sacrificed by breaking the cervical vertebrae. The tumor tissues are separated and weighed on an electronic balance to calculate an average weight. Various groups are compared in terms of their respective average tumor weight at the 12th day.
In comparing the tumor weights of various groups, statistic analysis is performed using the Student's t test.

[2] = tested on: S-180 sarcoma; assay: Animal Test B: SDT with lysine form of tin chlorophyllin in KM mouse S-180 sarcoma model; type: in vivo
Procedure: The sound-sensitive agent was the amino acid form of tin chlorophyllin, wherein M is Sn^4+, R1 is a residue of lysine, and R2 is a residue of lysine; the agent was obtained according to the previous process. The agent was dissolved in 0.1 mol/L phosphate buffer (pH 7.2-7.4) in darkness to give a final concentration of 2 mg/mL. The resultant solution was stored at 4° C. in a dark and quiet place.
The same as used in the above Animal Test A.
The same as established in the above Animal Test A.
After four days, touchable tumors with the average diameter of about 0.6 cm are developed subcutaneously at the right axillae of the mice. These tumor-bearing mice are divided randomly into the following groups: • 1) a blank control group (C); • 2) a ultrasound group (U), which are simply treated with ultrasound (having a frequency of 1.0 MHz and a power density of 1.2 W/cm^2) without injection of the sound-sensitive agent; • 3) a sound-sensitive agent group (S), which are simply injected with the sound-sensitive agent without treatment of ultrasound; • 4) a 0.3 group (SU1), which are injected with the sound-sensitive agent and subsequently treated with ultrasound having a frequency of 1.0 MHz and a power density of 0.3 W/cm^2; • 5) a 0.6 group (SU2), which are treated according to SU1 except using ultrasound having a power density of 0.6 W/cm^2; and • 6) a 1.2 group (SU3), which are treated according to SU1 except using ultrasound having a power density of 1.2 W/cm^2.
A depilatory cream is applied to remove fur on the areas to be irradiated. For the S, SU1, SU2 and SU3 groups, the sound-sensitive agent is injected intraperitoneally to each mouse at a dose of 20 mg/kg in a dark room. The mice are then fed in darkness.
as §1, with “6 h” for “Six hours”, “after” for “after the”, “SU1, SU2” for “EU1, EU2”, “SU3” for “EU3”, “ultrasond” for “ultrasound”, “180 seconds.” for “3 minutes.”
The same as in the above Animal Test A.
15 days later, the mice are sacrificed by breaking the cervical vertebrae. The tumor tissues are separated and weighed on an electronic balance to calculate an average weight. Various groups are compared in terms of their respective average tumor weights at the 15th day.

[3] = tested on: right breast carcinoma, tumor metastasis in liver; assay: Clinical case: SDT with lysine form of tin chlorophyllin; type: in vivo, human; details: patient
Procedure: A patient with right breast carcinoma. […] 9, 2007 (see FIG. 5). The lysine form of tin chlorophyllin as indicated in the above animal test B was dissolved in 0.1 mol/L phosphate buffer (pH 7.4) and given to the patient through lingual absorption every day for 2 days. Total dose of the lysine form of tin chlorophyllin was 60 mg. After 24 h, the red light light-emitting diode (LED) was irradiated to the body surface followed by local ultrasound irradiating of the tumour area at the intensities of 2.0 W/cm^2 for 20 minutes in a water bathtub every day for 3 days. One week later, the treatment was repeated. After 3 cycles of SDT treatment with the lysine form of tin chlorophyllin, CT-PET scan on Jan.

Row | Substance | tumor growth (FIG. 2) ([1]; SDT, ultrasound power density 0.4 W/cm^2-1.6 W/cm^2) | Average Tumor Weights ([1]; group E: 40 mg/kg into abdominal cavity, no ultrasound) [g] | average tumor volume profile (FIG. 1) ([1]; group E: 40 mg/kg, no ultrasound) | Average Tumor Weights ([1]; group EU1: 40 mg/kg into abdominal cavity + ultrasound 1.0 MHz, 0.4 W/cm^2, 3 min, 6 h after injection) [g] | Average Tumor Weights ([1]; group EU2: 40 mg/kg into abdominal cavity + ultrasound 1.0 MHz, 0.8 W/cm^2, 3 min, 6 h after injection) [g] | average tumor volume profile (FIG. 1) ([1]; group EU3: 40 mg/kg + ultrasound 1.6 W/cm^2) | Average Tumor Weights ([1]; group EU3: 40 mg/kg into abdominal cavity + ultrasound 1.0 MHz, 1.6 W/cm^2, 3 min, 6 h after injection) [g] | effect on the tumor (FIG. 4) ([2]; SDT, ultrasound power density 0.3 W/cm^2-1.2 W/cm^2) | Average Tumor Weight ([2]; group S: 20 mg/kg intraperitoneally, no ultrasound, 15 days after treatment) [g] | average tumor volume profile (FIG. 3) ([2]; group S: 20 mg/kg, no ultrasound) | Average Tumor Weight ([2]; group SU1: 20 mg/kg intraperitoneally + ultrasound 1.0 MHz, 0.3 W/cm^2, 180 s, 6 h after injection, 15 days) [g] | Average Tumor Weight ([2]; group SU2: 20 mg/kg intraperitoneally + ultrasound 1.0 MHz, 0.6 W/cm^2, 180 s, 6 h after injection, 15 days) [g] | average tumor volume profile (FIG. 3) ([2]; group SU3: 20 mg/kg + ultrasound 1.2 W/cm^2) | Average Tumor Weight ([2]; group SU3: 20 mg/kg intraperitoneally + ultrasound 1.0 MHz, 1.2 W/cm^2, 180 s, 6 h after injection, 15 days) [g] | Blood Routine and chemistry tests ([3]; after 3 cycles of SDT) | symptom ([3]; after 3 cycles of SDT) | CT-PET scan of liver metastasis after 3 cycles of SDT ([3]; total dose 60 mg by lingual absorption, red LED light + ultrasound 2.0 W/cm^2, 20 min, daily for 3 days per cycle)
1 | dihydroporphin e4 | tumor growth is significantly inhibited | 1.8800 ± 0.3114 | slower increase compared with the blank control group | 0.7600 ± 0.0894 | 0.5800 ± 0.0837 | even slower tumor development | 0.5200 ± 0.0837 | – | – | – | – | – | – | – | – | – | –
2 | lysine form of tin chlorophyllin | – | – | – | – | – | – | – | killing effect on the tumor | 0.269 ± 0.331 | slower increase compared to the blank control group | 0.0435 ± 0.031 | 0.022 ± 0.008 | hardly increased during the first six days after the SDT treatment, and began to decrease from the 7th day, and noticeably lower at the 15th day than before the test | 0.011 ± 0.004 | normal result | much improved | the tumor shrank and the tumor metabolic activity was inhibited
